Experimental findings from patent publication US20250059183A1, “PYRIDINE[4,3-D]PYRIMIDINE COMPOUND AS TLR7/8 AGONIST” (SHANGHAI VISONPHARMA CO., LTD., priority 2021, published 2025) are described below.

For orientation: EC50 means the concentration needed to bring the measured effect to its halfway point. The low end stands for greater potency, the high end for weaker potency.

The first assay deals with T1, human TLR8 (Homo sapiens, UniProt Q9NR97).
T1 construct: host or cells: HEK-Blue hTLR8 (HEK293-derived reporter cells)
T1 sequence (Q9NR97 27-1041): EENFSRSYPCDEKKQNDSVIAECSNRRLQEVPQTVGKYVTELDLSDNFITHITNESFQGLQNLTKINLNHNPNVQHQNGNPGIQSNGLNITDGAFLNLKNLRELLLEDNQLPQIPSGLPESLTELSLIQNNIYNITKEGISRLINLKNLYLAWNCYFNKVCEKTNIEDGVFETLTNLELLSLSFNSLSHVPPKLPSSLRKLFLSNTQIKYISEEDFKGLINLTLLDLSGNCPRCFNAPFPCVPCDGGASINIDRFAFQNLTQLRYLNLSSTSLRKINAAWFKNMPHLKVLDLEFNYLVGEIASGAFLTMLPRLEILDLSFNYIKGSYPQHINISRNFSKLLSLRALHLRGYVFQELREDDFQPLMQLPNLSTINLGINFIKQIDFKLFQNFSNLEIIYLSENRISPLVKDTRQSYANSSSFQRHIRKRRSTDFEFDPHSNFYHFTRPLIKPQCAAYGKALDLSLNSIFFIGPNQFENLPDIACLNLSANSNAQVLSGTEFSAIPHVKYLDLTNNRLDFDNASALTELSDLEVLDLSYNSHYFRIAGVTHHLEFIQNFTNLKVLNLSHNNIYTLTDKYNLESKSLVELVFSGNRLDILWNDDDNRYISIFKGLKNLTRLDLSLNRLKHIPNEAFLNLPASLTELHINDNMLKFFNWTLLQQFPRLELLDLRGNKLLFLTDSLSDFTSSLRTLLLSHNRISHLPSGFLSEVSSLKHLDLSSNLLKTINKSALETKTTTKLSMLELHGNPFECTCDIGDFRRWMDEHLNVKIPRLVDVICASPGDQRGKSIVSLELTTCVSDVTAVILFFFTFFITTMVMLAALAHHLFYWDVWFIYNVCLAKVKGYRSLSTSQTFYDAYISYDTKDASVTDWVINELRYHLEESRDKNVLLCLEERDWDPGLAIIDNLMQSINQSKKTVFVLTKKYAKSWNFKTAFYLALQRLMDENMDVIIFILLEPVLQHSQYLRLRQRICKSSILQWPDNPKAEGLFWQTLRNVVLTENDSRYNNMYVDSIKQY
In words: HEK-Blue hTLR8 SEAP reporter gene agonist assay. The settings on record: HEK-Blue hTLR8 cells, 16 to 22 hours incubation. Type of assay: cell-based. The procedure: (§1) HEK-Blue™ cells that stably express human TLR7 or TLR8 are used to evaluate the agonistic activity of the compounds on TLR7 or TLR8, which is determined by the induction of the expression of SEAP reporter gene under the control of minimum IFN-β promoter fusion to 5×NF-κB and AP-1 binding sites. The assay is conducted as below:
(§2) HEK-Blue™ hTLR7 (Invivogen, 80,000 cells per well) or HEK-Blue™ hTLR8 (Invivogen, 60,000 cells per well) were added to the 96-well cell culture plate, followed by adding of the test compound. The final concentration of the test compound in the medium ranged from […], and was incubated for 16 to 22 hours. According to the manufacturer's instructions, the HEK-Blue assay reagent Quanti-blue (Invivogen) was used to measure SEAP levels in cell media. Optical density at 650 nm (OD650) was measured by Neo2 multifunction plate reader (Bio-tek). The half effective concentration (EC50) was calculated using GraphPad Prism.
(In a reporter assay the amount or activity of a reporter protein is the signal.)
`CCCCNc1nc(N)nc2ccn(Cc3ccc(CN4CCCC4)c(F)c3)c(=O)c12` [Compound I-27, 2-amino-4-(butylamino)-6-(3-fluoro-4-(pyrrolidin-1-ylmethyl)benzyl)pyrido[4,3-d]pyrimidin-5(6H)-one] displayed an EC50 of 95 nM.
Same read-out and setting: in the case of `CCC[C@@H](C)Nc1nc(N)nc2ccn(Cc3ccc(CN4CC5(COC5)C4)nc3OC)c(=O)c12` [Compound I-188, (R)-6-((6-((2-oxa-6-azaspiro[3.3]heptan-6-yl)methyl)-2-methoxypyridin-3-yl)methyl)-2-amino-4-(pentan-2-ylamino)pyrido[4,3-d]pyrimidin-5(6H)-one] it was 29 nM.
Same read-out and setting: with `CCC[C@@H](C)Nc1nc(N)nc2ccn(Cc3ccc(CN(CCC)CCO)cc3)c(=O)c12` [Compound I-140, (R)-2-amino-6-(4-(((2-hydroxyethyl)(propyl)amino)methyl)benzyl)-4-(pentan-2-ylamino)pyrido[4,3-d]pyrimidin-5(6H)-one] the figure was 30 nM; with `CCCCNc1nc(N)nc2ccn(Cc3ccc(CNCCO)cc3)c(=O)c12` [Compound I-34, 2-amino-4-(butylamino)-6-(4-(((2-hydroxyethyl)amino)methyl)benzyl)pyrido[4,3-d]pyrimidin-5(6H)-one], 45 nM.
On the same count and under the same terms, with `CCCCNc1nc(N)nc2ccn(Cc3cnc(CN4CCCC4)cn3)c(=O)c12` [Compound I-129, 2-amino-4-(butylamino)-6-((5-(pyrrolidin-1-ylmethyl)pyrazin-2-yl)methyl)pyrido[4,3-d]pyrimidin-5(6H)-one] the figure was 77 nM.
Regarding `CCC[C@@H](CO)Nc1nc(N)nc2ccn(Cc3ccc(CN4CCN(CCN)CC4)cc3OC)c(=O)c12` [Compound I-207, (S)-2-amino-6-(4-((4-(2-aminoethyl)piperazin-1-yl)methyl)-2-methoxybenzyl)-4-((1-hydroxypentan-2-yl)amino)pyrido[4,3-d]pyrimidin-5(6H)-one], a half-maximal effect (EC50) was put at 44 nM.
Same read-out and setting: in the case of `CCCCCCCCCC(=O)OC[C@H](CCC)Nc1nc(N)nc2ccn(Cc3ccc(CN4CCN(C)CC4)cc3OC)c(=O)c12` [Compound I-221] it was 30 nM; in that of `CCCCOC(=O)OC[C@H](CCC)Nc1nc(N)nc2ccn(Cc3ccc(CN4CCN(C)CC4)cc3OC)c(=O)c12` [Compound I-226], 73 nM.
Still for that read-out and setting: with `CCCC(C)Nc1nc(N)nc2ccn(Cc3ccc(CN4CCCC4)cc3)c(=O)c12` (stereo not drawn) [Compound I-12, 2-amino-4-(pentan-2-ylamino)-6-(4-(pyrrolidin-1-ylmethyl)benzyl)pyrido[4,3-d]pyrimidin-5(6H)-one] the figure was 97 nM; with `CCCCNc1nc(N)nc2ccn(Cc3ccc(C(=O)N4CC5CC(C4)N5)cc3)c(=O)c12` [Compound I-19, 6-(4-(3,6-diazabicyclo[3.1.1]heptane-3-carbonyl)benzyl)-2-amino-4-(butylamino)pyri do[4,3-d]pyrimidin-5(6H)-one], 55 nM; with `COCCNc1nc(N)nc2ccn(Cc3ccc(CN4CCCC4)cc3)c(=O)c12` [Compound I-21, 2-amino-4-((2-methoxyethyl)amino)-6-(4-(pyrrolidin-1-ylmethyl)benzyl)pyrido[4,3-d]pyrimidin-5(6H)-one], 51 nM.
Consider `CCCCNc1nc(N)nc2ccn(Cc3ccc(CN(CCO)CCO)cc3)c(=O)c12` [Compound I-50, 2-amino-6-(4-((bis(2-hydroxyethyl)amino)methyl)benzyl)-4-(butylamino)pyrido[4,3-d]pyrimidin-5(6H)-one], for which the EC50 came out at 51 nM.
The same measure, in the same setting: with `CCCCCCCCCCCCCCCC(=O)OC[C@H](CCC)Nc1nc(N)nc2ccn(Cc3ccc(CN4CCN(C)CC4)cc3OC)c(=O)c12` [Compound I-222] the figure was 9 nM; with `CCC[C@@H](CO)Nc1nc(N)nc2ccn(Cc3ccc(CN4CCNCC4)cc3OC)c(=O)c12` [Compound I-191, (S)-2-amino-4-((1-hydroxypentan-2-yl)amino)-6-(2-methoxy-4-(piperazin-1-ylmethyl)benzyl)pyrido[4,3-d]pyrimidin-5(6H)-one], 18 nM.
Compound `CCC[C@@H](CO)Nc1nc(N)nc2ccn(Cc3ccc(CN(C)CCN)cc3OC)c(=O)c12` [Compound I-208] had a concentration for a half-maximal effect (EC50) of 70 nM.
The same measure, in the same setting: with `CCCCNc1nc(N)nc2ccn(Cc3ccc(CN4CCCC4)cn3)c(=O)c12` [Compound I-128, 2-amino-4-(butylamino)-6-((5-(pyrrolidin-1-ylmethyl)pyridin-2-yl)methyl)pyrido[4,3-d]pyrimidin-5(6H)-one] the figure was 66 nM.

For a further assay, the target named is T2, human TLR7 (Homo sapiens, UniProt Q9NYK1).
T2 construct: host or cells: HEK-Blue hTLR7 (HEK293-derived reporter cells)
T2 sequence (Q9NYK1 27-1049): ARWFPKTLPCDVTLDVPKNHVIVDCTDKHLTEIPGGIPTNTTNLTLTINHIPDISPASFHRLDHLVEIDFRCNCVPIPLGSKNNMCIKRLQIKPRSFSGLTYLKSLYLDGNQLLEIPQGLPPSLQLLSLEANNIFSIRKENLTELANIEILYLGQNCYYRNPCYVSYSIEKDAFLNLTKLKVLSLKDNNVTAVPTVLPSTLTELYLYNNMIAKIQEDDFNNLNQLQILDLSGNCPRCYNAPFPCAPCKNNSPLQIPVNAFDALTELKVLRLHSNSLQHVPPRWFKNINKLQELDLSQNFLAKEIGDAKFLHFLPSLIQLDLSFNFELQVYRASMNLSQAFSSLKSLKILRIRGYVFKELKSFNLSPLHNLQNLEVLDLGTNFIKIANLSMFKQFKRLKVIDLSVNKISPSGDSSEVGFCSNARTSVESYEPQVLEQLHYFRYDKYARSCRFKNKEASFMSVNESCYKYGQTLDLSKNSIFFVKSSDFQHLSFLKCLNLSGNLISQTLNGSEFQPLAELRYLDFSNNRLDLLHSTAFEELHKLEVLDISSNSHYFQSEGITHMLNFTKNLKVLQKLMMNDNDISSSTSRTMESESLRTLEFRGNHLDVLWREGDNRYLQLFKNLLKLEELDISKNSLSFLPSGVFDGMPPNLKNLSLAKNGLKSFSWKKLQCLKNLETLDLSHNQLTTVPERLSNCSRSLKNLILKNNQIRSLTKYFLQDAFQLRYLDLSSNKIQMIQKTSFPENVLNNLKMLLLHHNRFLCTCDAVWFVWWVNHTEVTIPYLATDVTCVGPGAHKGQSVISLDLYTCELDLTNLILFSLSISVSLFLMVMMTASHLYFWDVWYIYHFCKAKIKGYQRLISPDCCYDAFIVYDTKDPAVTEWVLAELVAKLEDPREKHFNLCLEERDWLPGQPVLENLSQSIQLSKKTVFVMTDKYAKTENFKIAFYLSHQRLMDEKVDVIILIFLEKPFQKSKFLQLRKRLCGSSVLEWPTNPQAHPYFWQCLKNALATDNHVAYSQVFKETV
The experiment in a line: HEK-Blue hTLR7 SEAP reporter gene agonist assay. It is filed as cell-based. The following applies: HEK-Blue hTLR7 cells, 16 to 22 hours incubation. How it is done: as §1, §2
The compound `CCCC(CCC)Nc1nc(N)nc2ccn(Cc3ccc(C(=O)N4CCN(CCO)CC4)cc3OC)c(=O)c12` [Compound I-136, 2-amino-4-(heptan-4-ylamino)-6-(4-(4-(2-hydroxyethyl)piperazine-1-carbonyl)-2-methoxybenzyl)pyrido[4,3-d]pyrimidin-5(6H)-one] had an EC50 of 70 nM.
The same measure, in the same setting: with `CCC[C@@H](CC)Nc1nc(N)nc2ccn(Cc3ccc(C(=O)N4CCNCC4)cc3)c(=O)c12` [Compound I-137, (R)-2-amino-4-(hexan-3-ylamino)-6-(4-(piperazine-1-carbonyl)benzyl)pyrido[4,3-d]pyrimidin-5(6H)-one] the figure was 65 nM.
Still for that read-out and setting: in the case of `CCCCNc1nc(N)nc2ccn(Cc3ccc(CN4CCCC4)nc3OC)c(=O)c12` [Compound I-64, 2-amino-4-(butylamino)-6-((2-methoxy-6-(pyrrolidin-1-ylmethyl)pyridin-3-yl)methyl)pyrido[4,3-d]pyrimidin-5(6H)-one] it was 67 nM; in that of `CCCCNc1nc(N)nc2ccn(Cc3ccc(C(=O)N4CCN(C)CC4)cc3)c(=O)c12` [Compound I-63, 2-amino-4-(butylamino)-6-(4-(4-methylpiperazine-1-carbonyl)benzyl)pyrido[4,3-d]pyrimidin-5(6H)-one], 82 nM; in that of `CCCCNc1nc(N)nc2ccn(Cc3ccc(C(=O)N4CCN(C)CC4)cc3OC)c(=O)c12` [Compound I-73, 2-amino-4-(butylamino)-6-(2-methoxy-4-(4-methylpiperazine-1-carbonyl)benzyl)pyrido[4,3-d]pyrimidin-5(6H1)-one], 41 nM.
